Test results reported in US12697325B2 (TENNOR THERAPEUTICS (SUZHOU) LIMITED, priority 2021, dated 2026).

How the values were obtained:
[1] = test system: Acinetobacter baumannii clinical strains; experiment: Information of drug resistance of 10 clinical strains; assay type: cell-based; design: key: S: Drug Susceptible; I: Drug Intermediate; R: Drug Resistant
[2] = test system: Acinetobacter baumannii strains; experiment: Minimum inhibitory concentration (CLSI M07), Example 2, 20 strains; assay type: cell-based
Description: (§1) The minimum inhibitory concentration (MIC) was determined in accordance with the requirements of the Clinical and Laboratory Standards Institute (CLSI) M07 (for aerobic bacteria).
3.1 The compounds were diluted with DMSO up to 100 times of the highest concentration tested.
The steps of manual dilution are as follows (example): firstly, the compound or antibiotic was diluted to 100 times of the maximum final concentration tested, then 60 μL of compound mother liquor was added to the first column of the 96-well plate, and 30 μL of DMSO was added to each well in the second to the 12th column; 30 μL of the liquid was transferred from the first column to the second column. After being pipetted up and down to even, 30 μL was transferred to the third column, and was diluted in sequence at a 2-fold gradient for a total of 10 times; then 30 μL was removed from each well in the 11th column, then a compound solution diluted at 2-fold gradient was obtained and 1 μL was transferred to a 96-well test plate.
Aerobic bacteria: the strains were inoculated on MHA one day in advance and incubated overnight at 37° C. On the day of the assay, 5-6 single colonies were picked and suspended evenly in saline, and the bacterial concentration was adjusted to the turbidity of 0.5 McFarland standard (concentration is about 1×10^8 CFU/mL). The bacterial suspension was diluted at 200-fold with the corresponding liquid culture medium (Table 1), i.e., the bacterial concentration was ~5×10^5 CFU/ml, and then 100 μL of the liquid was transferred to a 96-well round bottom plate (the 96-well plate with compound prepared in 4.2, Echo method) to obtain the test plate. If the compound was manually diluted, then 99 μL of the solution was transferred into a 96-well round bottom plate. The 96-well round bottom plate obtained above was placed into an incubator at 37° C. and 85% humidity to incubate for 20 h.

[3] = test system: clinical strains of Acinetobacter baumannii; experiment: Minimum inhibitory concentration (CLSI M07), Example 1, clinical strains; assay type: cell-based; settings: combination MIC = sum of the concentrations of the two compounds
Description: as §1
3.1 The compounds were diluted with water up to 100 times of the highest concentration tested.
The dilution steps are as follows: first dilute the compounds or antibiotics to 100 times of the highest final concentration tested, and then:
A 50 μL of sterile water and 50 μL of avibactam sodium mother liquid were added into the A row of the second 96-well plate, and 50 μL of water was added into each of the remaining wells. A 50 μL of liquid was pipetted from the A row and added into the B row; after being pipetted up and down to even, 50 μL of the solution was pipetted and added to the C row, and diluted in a 2-fold gradient in turn for a total of 6 times and then, 50 μL was removed from each well of the G row to obtain the compound solution diluted to a 2-fold gradient and then 4 μL was transferred to a 96-well test plate.
Aerobic bacteria: the strains were inoculated on MHA one day in advance and incubated overnight at 37° C. On the day of the assay, 5-6 single colonies were picked and suspended evenly in saline, and the bacterial concentration was adjusted to the turbidity of 0.5 McFarland standard (concentration is about 1×10^8 CFU/mL). The bacterial suspension was diluted 200 times with the corresponding liquid culture medium (Table 1), i.e., at a bacterial concentration of ~5×10^5 CFU/ml, then 192 μL was transferred to a 96-well round bottom plate to obtain the test plate. Then, the 96-well round bottom plate obtained above was placed into an incubator at 37° C. and 85% humidity to incubate for 20 h.

[4] = Pharmacokinetics in plasma and bronchoalveolar lavage fluid of female CD-1 mice; assay type: in vivo; settings: mouse, in vivo
Description: An appropriate amount of the test drug was accurately weighed and mixed with the appropriate volume of vehicle (5% DMSO+0.5% Tween 80 in normal saline) to obtain a clear solution for the test in Table 9. The formulation solution for injection was prepared to sterile filtration through a 0.22 μm filter prior to administration. The mice were dosed with the drug within 30 min after the formulated solution for injection was prepared. A 1.5 mL of the formulation solution for injection was transferred into a polypropylene microcentrifuge tube for dose verification by LC/UV or LC-MS/MS.
All blood samples were transferred to pre-frozen EDTA-K2 tubes and placed on wet ice until centrifugation. […]
Plasma: approximately 100 μL of blood sample was transferred into pre-cooled commercial EDTA-K2 tubes and placed on wet ice until centrifugation. After the blood samples were centrifuged at approximately 4° C. and 3, 200 g for 10 min, plasma was collected and transferred to pre-labeled 96-well plates or polypropylene tubes, flash frozen on dry ice, and stored at ≤−60° C. until the analysis by LC-MS/MS.
Serum: approximately 100 μL of blood sample was transferred into a tube without anticoagulant and placed on wet ice for approximately 30 min and centrifuged at 4° C. and 3,000 g for 10 min, and the serum was collected and transferred into pre-labeled PP tubes placed on wet ice. After the completion of all the collections, serum samples were stored at −60° C. until being sent to the animal experimental team to determine urea concentration.
Bronchoalveolar lavage fluid (BALF): pre-cooled tracheo-alveolar lavage fluid was injected into the trachea or predefined bronchi. After a full expansion of the lung tissue, the lavage fluid was slowly drawn out with a syringe 30 s later. The lung was lavaged three times. During the last lavage, the lung tissue was gently squeezed to restore the fluid. To prevent contamination of other lung tissues, the corresponding bronchi were ligated. Both lungs of the mice were perfused with 0.8 mL.
[…] Approximately 200 μL of the BALF samples were transferred into a polypropylene tube, rapidly frozen on dry ice, maintained at ≤−60° C., and sent to the animal experimental team to determine urea concentration. The remaining BALF samples (approximately 600 μL) were rapidly frozen on dry ice and maintained at ≤−60° C. until being submitted for drug concentration analysis by LC-MS/MS.

CCN1CCN(C(=O)N[C@@H](C(=O)N[C@@H]2C(=O)N3[C@@H]2SC(C)(C)[C@@H]3C(=O)O)c2ccccc2)C(=O)C1=O [Piperacillin]
Drug resistance ([1]; strain TNP041702): R
Drug resistance ([1]; strain TNP041703): R
Drug resistance ([1]; strain TNP041704): R
Drug resistance ([1]; strain TNP041705): R
Drug resistance ([1]; strain TNP041706): R
Drug resistance ([1]; strain TNP041707): R
Drug resistance ([1]; strain TNP041708): R
Drug resistance ([1]; strain TNP041709): R
Drug resistance ([1]; strain TNP041710): R
Drug resistance ([1]; strain TNP041711): R

C[C@@H](O)[C@H]1C(=O)N2C(C(=O)O)=C(S[C@@H]3CN[C@H](C(=O)N(C)C)C3)[C@H](C)[C@H]12 [Meropenem]
Drug resistance ([1]; strain TNP041702): R
Drug resistance ([1]; strain TNP041703): R
Drug resistance ([1]; strain TNP041704): R
Drug resistance ([1]; strain TNP041705): R
Drug resistance ([1]; strain TNP041706): R
Drug resistance ([1]; strain TNP041707): R
Drug resistance ([1]; strain TNP041708): R
Drug resistance ([1]; strain TNP041709): R
Drug resistance ([1]; strain TNP041710): R
Drug resistance ([1]; strain TNP041711): R

CO/N=C(\C(=O)N[C@@H]1C(=O)N2C(C(=O)O)=C(COC(C)=O)CS[C@H]12)c1csc(N)n1 [Cefotaxime]
Drug resistance ([1]; strain TNP041702): R
Drug resistance ([1]; strain TNP041703): R
Drug resistance ([1]; strain TNP041704): R
Drug resistance ([1]; strain TNP041705): R
Drug resistance ([1]; strain TNP041706): R
Drug resistance ([1]; strain TNP041707): R
Drug resistance ([1]; strain TNP041708): R
Drug resistance ([1]; strain TNP041709): R
Drug resistance ([1]; strain TNP041710): R
Drug resistance ([1]; strain TNP041711): R

CO/N=C(\C(=O)N[C@@H]1C(=O)N2C(C(=O)[O-])=C(C[N+]3(C)CCCC3)CS[C@H]12)c1csc(N)n1 [Cefepime]
Drug resistance ([1]; strain TNP041702): R
Drug resistance ([1]; strain TNP041703): R
Drug resistance ([1]; strain TNP041704): R
Drug resistance ([1]; strain TNP041705): R
Drug resistance ([1]; strain TNP041706): R
Drug resistance ([1]; strain TNP041707): R
Drug resistance ([1]; strain TNP041708): R
Drug resistance ([1]; strain TNP041709): R
Drug resistance ([1]; strain TNP041710): R
Drug resistance ([1]; strain TNP041711): R

NC(=O)[C@@H]1CC[C@@H]2CN1C(=O)N2OS(=O)(=O)[O-].[Na+] [Avibactam sodium, avibactam sodium]
MIC50 ([2]; Example 2, 20 strains): >128 µg/mL
MIC90 ([2]; Example 2, 20 strains): >128 µg/mL
MIC range ([2]; Example 2, 20 strains): >128 µg/mL
MIC ([2]; strain ARLG-1791): >128 µg/mL
MIC ([2]; strain ARLG-1809): >128 µg/mL
MIC ([2]; strain ARLG-1852): >128 µg/mL
MIC ([2]; strain ARLG-1853): >128 µg/mL
MIC ([2]; strain ARLG-1881): >128 µg/mL
MIC ([2]; strain ATCC 17978): >128 µg/mL
MIC ([2]; strain ATCC 19606): >128 µg/mL
MIC ([2]; strain ATCC-BAA-1605): >128 µg/mL
MIC ([2]; strain ATCC-BAA-1789): >128 µg/mL
MIC ([2]; strain ATCC-BAA-1790): >128 µg/mL
MIC ([2]; strain ATCC-BAA-1791): >128 µg/mL
MIC ([2]; strain ATCC-BAA-1792): >128 µg/mL
MIC ([2]; strain ATCC-BAA-1793): >128 µg/mL
MIC ([2]; strain ATCC-BAA-1794): >128 µg/mL
MIC ([2]; strain ATCC-BAA-1795): >128 µg/mL
MIC ([2]; strain ATCC-BAA-1796): >128 µg/mL
MIC ([2]; strain ATCC-BAA-1797): >128 µg/mL
MIC ([2]; strain ATCC-BAA-1798): >128 µg/mL
MIC ([2]; strain ATCC-BAA-1799): >128 µg/mL
MIC ([2]; strain ATCC-BAA-1800): >128 µg/mL
MIC of the strain BAA-1795 (component in the combination) ([2]; strain BAA-1795, sulbactam/avibactam 4:1, concentration of the named component): 2 µg/mL
MIC50 [3]: >32 µg/mL
MIC90 [3]: >32 µg/mL
MIC range [3]: >32 µg/mL
AUC Ratio [4]: 0.0257
Part of the dosing interval with free plasma concentration above the MIC of strain BAA-1795 [4]: more than 50%
Part of the dosing interval with plasma concentration above the MIC of strain BAA-1795 [4]: more than 50%
AUC0-last, BALF ([4]; iv, 150 mg/kg): 1319 ng·h/mL
AUC0-last, plasma ([4]; iv, 150 mg/kg): 51289 ng·h/mL
Cl ([4]; iv, 150 mg/kg): 48.7 mL/min/kg
MRT0-last, BALF ([4]; iv, 150 mg/kg): 103 min
MRT0-last, plasma ([4]; iv, 150 mg/kg): 26.3 min
T1/2, BALF ([4]; iv, 150 mg/kg): 45.7 min
T1/2, plasma ([4]; iv, 150 mg/kg): 73.8 min

Gentamicin
Drug resistance ([1]; strain TNP041702): R
Drug resistance ([1]; strain TNP041703): R
Drug resistance ([1]; strain TNP041704): R
Drug resistance ([1]; strain TNP041705): R
Drug resistance ([1]; strain TNP041706): S
Drug resistance ([1]; strain TNP041707): R
Drug resistance ([1]; strain TNP041708): R
Drug resistance ([1]; strain TNP041709): R
Drug resistance ([1]; strain TNP041710): R
Drug resistance ([1]; strain TNP041711): R
